Laboratory results reported in US20150322067A1, “NITROGEN CONTAINING COMPOUNDS AND THEIR USE” (priority 2011, published 2015).
Read-outs that look alike come from different tables or passages of the source.

Columns and labels:
Assay in all cases: Agar dilution MIC (CLSI), beta-lactam with or without beta-lactamase inhibitor
Assay type in all cases: cell-based
E. coli 7 MP = details: Class C ESBL strain; for MIC of Ceftazidime + inhibitor: Ceftazidime in combination with inhibitor at 4 mcg/ml
Procedure: (§1) The biological activity of representative compounds of the invention against various bacterial strains (in combination with another antibacterial agent) was investigated. In a typical study, overnight grown bacterial cultures were diluted appropriately and inoculated on the agar media containing doubling dilutions of the antibiotics. Observation for growth or no growth was performed after 16-20 hours of incubation at 35±2° C. in ambient air. The overall procedure was performed as per Clinical and Laboratory Standards Institute (CLSI) recommendations (Clinical and Laboratory Standards Institute (CLSI), performance Standards for Antimicrobial Susceptibility Testing, 20th Informational Supplement, M 100-S20, Volume 30, No. 1, 2010). Table 1 details potencies of ceftazidime in combination of representative compound according to the invention (compound of formula (I) wherein M is sodium) against various MDR (Multi Drug Resistant) Gram-negative strains producing Class A, C and D beta-lactamase enzymes. The activities are expressed as MICs (mcg/ml). For comparison, the activity of various other known beta-lactamase inhibitors such as clavulanic acid, tazobactam, MK-7655, and NXL-104 are also provided.

E. coli B 89 = details: Class C ESBL strain; for MIC of Ceftazidime + inhibitor: Ceftazidime in combination with inhibitor at 4 mcg/ml
Procedure: as §1

E. coli M 50 = details: Class C ESBL strain; for MIC of Ceftazidime + inhibitor: Ceftazidime in combination with inhibitor at 4 mcg/ml
Procedure: as §1

E. coli NCTC 13351 = details: Class A ESBL strain; for MIC of Ceftazidime + inhibitor: Ceftazidime in combination with inhibitor at 4 mcg/ml
Procedure: as §1

E. coli NCTC 13352 = details: Class A ESBL strain; for MIC of Ceftazidime + inhibitor: Ceftazidime in combination with inhibitor at 4 mcg/ml
Procedure: as §1

[1] = system: K. pneumoniae ATCC 700603; details: Class A ESBL strain; for MIC of Ceftazidime + inhibitor: Ceftazidime in combination with inhibitor at 4 mcg/ml
Procedure: as §1

A. baumanni NCTC 13301 = details: Class D ESBL strain; for MIC of Ceftazidime + inhibitor: Ceftazidime in combination with inhibitor at 4 mcg/ml; for MIC of Meropenem + inhibitor: Meropenem in combination with inhibitor at 4 mcg/ml
Procedure: as §1
(§2) Table 2 details data corresponding to a combination of Meropenem with a compound of Formula (I), wherein M is sodium, against Class D ESBL producing strains. Class D ESBLs producing pathogens that confer a high degree of resistance to carbapenems are a therapeutic problem in the clinical settings since extremely limited treatment options are available to treat them.

A. baumanni NCTC 13304 = details: Class D ESBL strain; for MIC of Ceftazidime + inhibitor: Ceftazidime in combination with inhibitor at 4 mcg/ml; for MIC of Meropenem + inhibitor: Meropenem in combination with inhibitor at 4 mcg/ml
Procedure: as §1, §2

A. baumanni NCTC 13305 = details: Class D ESBL strain; for MIC of Ceftazidime + inhibitor: Ceftazidime in combination with inhibitor at 4 mcg/ml; for MIC of Meropenem + inhibitor: Meropenem in combination with inhibitor at 4 mcg/ml
Procedure: as §1, §2

[2] = Ceftazidime alone, read-out: MIC of Ceftazidime, Control
[3] = Meropenem alone, read-out: MIC of Meropenem, Control

| SMILES | MIC of Ceftazidime + inhibitor (E. coli 7 MP) | MIC of Ceftazidime + inhibitor (E. coli B 89) | MIC of Ceftazidime + inhibitor (E. coli M 50) | MIC of Ceftazidime + inhibitor (E. coli NCTC 13351) | MIC of Ceftazidime + inhibitor (E. coli NCTC 13352) | MIC of Ceftazidime + inhibitor [1] | MIC of Ceftazidime + inhibitor (A. baumanni NCTC 13301) | MIC of Meropenem + inhibitor (A. baumanni NCTC 13301) | MIC of Ceftazidime + inhibitor (A. baumanni NCTC 13304) | MIC of Meropenem + inhibitor (A. baumanni NCTC 13304) | MIC of Ceftazidime + inhibitor (A. baumanni NCTC 13305) | MIC of Meropenem + inhibitor (A. baumanni NCTC 13305) | further results |
| --- | --- | --- | --- | --- | --- | --- | --- | --- | --- | --- | --- | --- | --- |
| C[C@]1(Cn2ccnn2)[C@H](C(=O)O)N2C(=O)C[C@H]2S1(=O)=O [Tazobactam, tazobactam] | >32 µg/mL | >32 µg/mL | >32 µg/mL | 0.5 µg/mL | 1 µg/mL | 1 µg/mL | >32 µg/mL | 32 µg/mL | >32 µg/mL | 32 µg/mL | 16 µg/mL | 8 µg/mL | – |
| N#C[C@@H]1CC[C@@H]2CN1C(=O)N2OS(=O)(=O)[O-].[Na+] [Sodium salt of trans-7-oxo-6-(sulphoxy)-1,6-diazabicyclo[3.2.1]-octane-2-carbonitrile] | 2 µg/mL | 1 µg/mL | 1 µg/mL | 0.5 µg/mL | 0.5 µg/mL | 0.5 µg/mL | 32 µg/mL | 4 µg/mL | 32 µg/mL | 2 µg/mL | 16 µg/mL | 2 µg/mL | – |
| O=C(NC1CCNCC1)[C@@H]1CC[C@@H]2CN1C(=O)N2OS(=O)(=O)O [MK 7655] | 8 µg/mL | 4 µg/mL | 2 µg/mL | 2 µg/mL | 8 µg/mL | 2 µg/mL | >32 µg/mL | 32 µg/mL | 32 µg/mL | 32 µg/mL | 16 µg/mL | 8 µg/mL | – |
| O=C(O)[C@H]1/C(=C/CO)O[C@@H]2CC(=O)N21 [Clavulanic acid, clavulanic acid] | >32 µg/mL | >32 µg/mL | >32 µg/mL | 0.5 µg/mL | 0.5 µg/mL | 0.5 µg/mL | >32 µg/mL | 32 µg/mL | >32 µg/mL | 32 µg/mL | 16 µg/mL | 8 µg/mL | – |
| CC(C)(O/N=C(\C(=O)N[C@@H]1C(=O)N2C(C(=O)[O-])=C(C[n+]3ccccc3)CS[C@H]12)c1csc(N)n1)C(=O)O [Ceftazidime] | – | – | – | – | – | – | – | – | – | – | – | – | MIC (E. coli 7 MP; Escherichia coli, 7MP, Ceftazidime alone, read-out: MIC of Ceftazidime, Control): > 32 µg/mL; MIC (E. coli B 89; Escherichia coli, B89, Ceftazidime alone, read-out: MIC of Ceftazidime, Control): > 32 µg/mL; MIC (E. coli M 50; Escherichia coli, M50, Ceftazidime alone, read-out: MIC of Ceftazidime, Control): > 32 µg/mL; MIC (E. coli NCTC 13351; Escherichia coli, NCTC13351, Ceftazidime alone, read-out: MIC of Ceftazidime, Control): 32 µg/mL; MIC (E. coli NCTC 13352; Escherichia coli, NCTC13352, Ceftazidime alone, read-out: MIC of Ceftazidime, Control): > 32 µg/mL; MIC ([1]; Klebsiella pneumoniae, ATCC700603, Ceftazidime alone, read-out: MIC of Ceftazidime, Control): 32 µg/mL; MIC (A. baumanni NCTC 13301; [2]): > 32 µg/mL; MIC (A. baumanni NCTC 13304; [2]): > 32 µg/mL; MIC (A. baumanni NCTC 13305; [2]): 16 µg/mL |
| NC(=O)[C@@H]1CC[C@@H]2CN1C(=O)N2OS(=O)(=O)O [NXL104] | 4 µg/mL | 1 µg/mL | 1 µg/mL | 0.5 µg/mL | 0.5 µg/mL | 0.5 µg/mL | >32 µg/mL | 16 µg/mL | 32 µg/mL | 16 µg/mL | 16 µg/mL | 8 µg/mL | – |
| C[C@@H](O)[C@H]1C(=O)N2C(C(=O)O)=C(S[C@@H]3CN[C@H](C(=O)N(C)C)C3)[C@H](C)[C@H]12 [Meropenem] | – | – | – | – | – | – | – | – | – | – | – | – | MIC (A. baumanni NCTC 13301; [3]): 32 µg/mL; MIC (A. baumanni NCTC 13304; [3]): 32 µg/mL; MIC (A. baumanni NCTC 13305; [3]): 8 µg/mL |
